Laboratory results taken from patent publication US20060198907A1, “Pharmaceutical, therapeutic, and dietary compositions derived from Lagerstroemia speciosa L. plant” (priority 2004, published 2006).

Target: xanthine oxidase (Homo sapiens, UniProt P47989)
Assay: Inhibition of xanthine oxidase activity
Type: biochemical
Conditions: observed by the inventors, in words

Chain of xanthine oxidase (P47989 whole entry, species assumed): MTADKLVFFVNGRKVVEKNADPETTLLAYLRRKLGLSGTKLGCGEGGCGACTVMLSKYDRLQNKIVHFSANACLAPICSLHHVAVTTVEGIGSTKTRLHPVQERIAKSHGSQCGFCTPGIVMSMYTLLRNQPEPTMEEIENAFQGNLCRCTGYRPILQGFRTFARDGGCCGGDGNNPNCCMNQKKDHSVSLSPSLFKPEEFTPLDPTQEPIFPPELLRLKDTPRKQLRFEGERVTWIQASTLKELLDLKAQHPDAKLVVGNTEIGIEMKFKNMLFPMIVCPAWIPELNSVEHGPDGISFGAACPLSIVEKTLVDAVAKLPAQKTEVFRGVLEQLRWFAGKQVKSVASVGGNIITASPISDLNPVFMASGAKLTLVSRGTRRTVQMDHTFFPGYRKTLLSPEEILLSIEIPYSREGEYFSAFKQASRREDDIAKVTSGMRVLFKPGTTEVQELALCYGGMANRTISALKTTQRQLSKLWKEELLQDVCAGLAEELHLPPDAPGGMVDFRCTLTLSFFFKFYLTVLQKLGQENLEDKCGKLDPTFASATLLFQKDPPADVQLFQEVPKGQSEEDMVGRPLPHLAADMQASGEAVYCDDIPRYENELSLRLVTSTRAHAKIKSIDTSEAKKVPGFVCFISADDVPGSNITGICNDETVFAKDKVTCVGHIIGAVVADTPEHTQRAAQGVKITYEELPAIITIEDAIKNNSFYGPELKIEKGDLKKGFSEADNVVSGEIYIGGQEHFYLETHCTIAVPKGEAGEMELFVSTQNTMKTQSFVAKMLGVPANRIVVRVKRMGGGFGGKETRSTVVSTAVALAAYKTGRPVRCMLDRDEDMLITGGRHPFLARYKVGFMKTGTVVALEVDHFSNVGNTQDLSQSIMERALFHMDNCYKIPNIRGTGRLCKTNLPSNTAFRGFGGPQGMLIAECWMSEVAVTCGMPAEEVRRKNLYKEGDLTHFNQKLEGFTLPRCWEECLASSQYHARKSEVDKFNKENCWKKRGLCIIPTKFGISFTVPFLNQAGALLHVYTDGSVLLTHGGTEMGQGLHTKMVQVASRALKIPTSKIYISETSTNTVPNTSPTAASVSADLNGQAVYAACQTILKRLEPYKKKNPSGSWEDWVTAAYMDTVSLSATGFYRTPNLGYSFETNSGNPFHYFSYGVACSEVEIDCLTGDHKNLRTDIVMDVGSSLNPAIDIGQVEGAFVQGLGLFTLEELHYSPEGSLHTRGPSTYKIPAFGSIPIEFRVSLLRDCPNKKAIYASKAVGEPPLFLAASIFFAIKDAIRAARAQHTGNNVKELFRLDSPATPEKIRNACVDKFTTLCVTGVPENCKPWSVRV

inhibition of xanthine oxidase activity: inhibition of xanthine oxidase activity
SMILES: O=C(O)c1cc(O)c(O)c(O)c1Oc1cc2c(=O)oc3c(O)c(O)cc4c(=O)oc(c1O)c2c34 [valoneic acid dilactone]
